{"source": "patent US20240415828A1", "about": "“TLR7 AGONIST AND COMBINATIONS FOR CANCER TREATMENT” (BIONTECH SE, priority 2021, published 2024)", "key": {"[1]": {"conditions": "in vivo, cited from earlier work"}, "[2]": {"system": "CT26 colon carcinoma cells", "experiment": "CT26 tumor model, BNT411 alone and with oxaliplatin (Example 4)", "type": "in vivo, mouse", "conditions": "BNT411 3 mg/kg i.v. eight times; oxaliplatin 5 mg/kg i.p. four times; group mean tumor volumes test vs control", "method": "FIG. 5. Anti-tumoral efficacy of BNT411 alone and in combination with oxaliplatin in a tumor mouse model. Mice (n=12 or 13 per group) subcutaneously inoculated with 2.5×10^5 CT26 colon carcinoma cells were used as tumor mouse model. Oxaliplatin was administered intraperitoneally (i.p.) (5 mg/kg, four times with 4 to 5 days between injections). BNT411 was administered i.v. at a dose level of 3 mg/kg eight times with 2 to 5 days interval between injections and at least 2 days after oxaliplatin therapy. Anti-tumor efficacy was evaluated by group mean tumor volumes in test versus control groups (vehicle only) on days 33 and 42 (at least 50% of test and control animals alive). IFNα levels in plasma were analyzed 1 h after first BNT411 administration and gp70+ T-cell populations in blood were analyzed on days 34 and 41. (A) Dosing schedule. (B) Graph showing the tumor volumes vs. days after inoculation. Group mean tumor volumes (±SEM (standard error of the mean)) for all live animals are shown. Treatment groups included nine to ten mice. Additionally, tumor volumes of animals that were euthanized due to tumor load were carried forward for as long as they were larger than the group median tumor volume (last observation carried forward (LOCF) values). Curves were discontinued for groups with less than 50% animals alive. (C) Graph showing IFNα serum level 60 min after first injection for the 4 groups (control (vehicle); BNT411 alone; oxaliplatin alone; BNT411 and oxaliplatin). IFNα levels in control and test groups are shown by vertical bars (±SEM), Statistical significance between groups is indicated by horizontal lines. P-value summary: ****=p≤0.0001; ***=p≤0.001; **=p≤0.01, […].\nSerum levels of IFNα were measured by sandwich ELISA (Pbl Assay Systems) according to manufacturer's instructions.\nBALB/c mice were inoculated s.c. with 2.5×10^5−5×10^5 CT26-WT into the flank, respectively. Once tumors reached palpable sizes, mice were randomly divided into treatment and control groups. Tumor volume was measured unblinded with a caliper and calculated using the formula (a×b^2)/2 (a being the largest and b being the smallest diameter of the tumor). Tumor growth was documented as mean tumor size with standard error disregarding single distant outliers. Treatment was initiated after 7-10 d with tumors having reached an average volume of about 10 mm^3. […]\nOxaliplatin was administered intraperitoneally (i.p.) (5 mg/kg, four times with 4 to 5 days between injections). […] Anti-tumor efficacy was evaluated by group mean tumor volumes in test versus control groups (vehicle only) on study days 33 and 42, (at least 50% of test and control animals alive). IFNα levels in plasma were analyzed 1 h after first BNT411 administration and gp70+ T-cell populations in blood on study days 34 and 41."}}}
{"smiles": "CCc1nc2c(N)nc3ccccc3c2n1CCCCNS(C)(=O)=O", "note": "[852A]", "values": [{"measurement": "tolerability of repeat-dose regimens", "setting": "[1]", "value": "not well tolerated"}]}
{"smiles": "CC(C)Cn1cnc2c(N)nc3ccccc3c21", "note": "[imiquimod]", "values": [{"measurement": "tolerability of repeated i.v. administrations at a systemically effective IFNa-inducing dose level", "setting": "[1]; iv", "value": "dose limiting adverse reactions"}]}
{"smiles": "O=C1[O][Pt]2([NH][C@@H]3CCCC[C@H]3[NH]2)[O]C1=O", "note": "[oxaliplatin, reference compound]", "values": [{"measurement": "anti-tumor efficacy, T/C value", "setting": "[2]", "value": 50.7, "unit": "%"}]}
